Results published in US20250304537A1 (Repare Therapeutics Inc., priority 2022, published 2025).
Where two headings read alike, the source gives them in different places.

How the values were obtained:
[1] = tested on: PKMYT1 (CDK1 pThr14) in FUOV1 cells; assay: PKMYT1 cell-based activity assay, CDK1 pThr14 AlphaLISA in FUOV1 cells; settings: read-out: FUOV-1 CDK1 pThr14 IC50
How it was run: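 IC50 was derived from AlphaLISA signal (excitation 680 nm, emission 615 nm) for phospho-Thr14 CDK1 in lysates. The detection antibodies were rabbit anti-pThr14 and mouse anti-total CDK1, each at 5 nM. FUOV1 ovarian cells were exposed to compound for 2 hours before lysis.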

[2] = target: recombinant human Myt1 (full length PKMYT1) (Homo sapiens (Human), UniProt Q99640); assay: Recombinant human Myt1 kinase assay (ADP-Glo); assay type: biochemical; settings: 10 μM ATP
How it was run: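 ADP-Glo luminescence measured ATP hydrolysis by recombinant full-length PKMYT1 (18 nM) after 60 min at 30 °C with 10 μM ATP. Compounds in 0.5% DMSO were added to the enzyme 15 min before ATP, at 22 °C, in HEPES/MgCl2/MnCl2 buffer. IC50 and percent maximal inhibition were derived.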

Sequence of recombinant human Myt1 (full length PKMYT1) (Q99640 whole entry): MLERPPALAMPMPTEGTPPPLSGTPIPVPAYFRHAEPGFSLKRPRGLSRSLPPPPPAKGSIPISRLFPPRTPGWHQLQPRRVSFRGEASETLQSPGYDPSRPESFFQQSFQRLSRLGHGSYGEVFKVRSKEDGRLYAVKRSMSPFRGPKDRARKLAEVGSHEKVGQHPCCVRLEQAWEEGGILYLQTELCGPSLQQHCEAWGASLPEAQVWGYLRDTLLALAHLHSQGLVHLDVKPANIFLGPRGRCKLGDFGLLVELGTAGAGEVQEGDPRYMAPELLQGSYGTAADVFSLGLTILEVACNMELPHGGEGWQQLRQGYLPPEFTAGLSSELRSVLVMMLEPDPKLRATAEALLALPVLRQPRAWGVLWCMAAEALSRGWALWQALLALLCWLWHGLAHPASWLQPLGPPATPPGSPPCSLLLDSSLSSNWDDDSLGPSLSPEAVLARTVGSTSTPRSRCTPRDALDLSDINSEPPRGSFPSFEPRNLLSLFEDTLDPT

Compound	IC50 ([1]; 2 h, 2 h compound incubation) [nM]	IC50 [2] [nM]	IC50 ([1]; 2 h, 2 h incubation) [nM]	IC50 ([1]; 2 h, 2 hours with compound) [nM]	IC50 ([1]; 2 h incubation) [nM]
Cc1ccc2[nH]ncc2c1-c1nc(-c2cccnc2Nc2ncccc2F)nc(C(N)=O)c1N [Compound 621]	3	3			
Cc1ccc2[nH]ncc2c1-c1nc(-c2cc(F)ccc2NS(=O)(=O)C2CC2)nc(C(N)=O)c1N [Compound 481]	83	2			
Cc1ccc(-c2nc(C(N)=O)c(N)c(-c3c(C)ccc4[nH]ncc34)n2)s1 [Compound 110]		23	883		
Cc1ccc(O)c(C)c1-c1cc(-c2nc3ccccc3s2)nc(C(N)=O)c1N [Compound 55]		15			146
Cc1ccc2[nH]ncc2c1-c1cc(-c2ccnc(O[C@H]3CO[C@H]4OCC[C@H]43)n2)nc(C(N)=O)c1N [Compound 208]		6	106		
Cc1ccc2[nH]ncc2c1-c1nc(-c2cccc3c2NCCO3)nc(C(N)=O)c1N [Compound 852]		17		502	
Cc1ccc2[nH]ncc2c1-c1cc(-c2cccc(OCc3nccn3C)n2)nc(C(N)=O)c1N [Compound 249]		5	85		
Cc1ccc2[nH]ncc2c1-c1cc(-c2ccnc(N3CCCC3)n2)nc(C(N)=O)c1N [Compound 174]		10	939		
Cc1ccc2[nH]ncc2c1-c1nc(-c2ccccc2N[C@@H](C)C(F)(F)F)nc(C(N)=O)c1N [Compound 429]	36	4			
Cc1ccc2[nH]ncc2c1-c1nc(-c2ccccc2S(=O)(=O)NC(C)(C)C)nc(C(N)=O)c1N [Compound 792]	> 10000	10100			
Cc1ccc2[nH]ncc2c1-c1nc(-c2ccccc2NC(=O)C2(Cl)CC2)nc(C(N)=O)c1N [Compound 441]	8	4			
Cc1ccc2[nH]ncc2c1-c1nc(-c2cccc(N3CCOCC3)c2)nc(C(N)=O)c1N [Compound 102]		19	462		
Cc1ccc2[nH]ncc2c1-c1nc(-c2ccccc2NC(=O)C2(C(F)(F)F)CC2)nc(C(N)=O)c1N [Compound 405]	93	4			
Cc1ccc2[nH]ncc2c1-c1nc(-c2ccccc2NC(=O)C2(C)CC2(F)F)nc(C(N)=O)c1N (stereo not drawn) [Compound 443]	26	3			
CCNc1ccccc1-c1nc(C(N)=O)c(N)c(-c2c(C)ccc3[nH]ncc23)n1 [Compound 442]	33	4			
Cc1ccc(O)c(C)c1-c1cc(-c2nc3ccccc3s2)nc(C(N)=O)c1N [Compound 58]		5			387
CCC(COc1nccc(-c2cc(-c3c(C)ccc4[nH]ncc34)c(N)c(C(N)=O)n2)n1)OC (stereo not drawn) [Compound 302]		4	23		
Cc1ccc2[nH]ncc2c1-c1nc(-c2cc(C(F)(F)F)ccc2NC(=O)C2(C)CC2)nc(C(N)=O)c1N [Compound 445]	1030	38			
Cc1ccc(O)c(C)c1-c1cc(-c2ccccn2)nc(C(N)=O)c1N [Compound 19]		4	14		
COc1cc(C)cc(-c2nc(C(N)=O)c(N)c(-c3c(C)ccc4[nH]ncc34)n2)c1 [Compound 143]		23	1470		

Continued by falling IC50 [2], values first:

IC50 ([1]; 2 h, 2 h compound incubation) [nM]	IC50 [2] [nM]	IC50 ([1]; 2 h, 2 h incubation) [nM]	IC50 ([1]; 2 h, 2 hours with compound) [nM]	IC50 ([1]; 2 h incubation) [nM]	Compound
	4050		> 10000		CCNC(=O)c1ccccc1-c1nc(C(N)=O)c(N)c(-c2c(C)ccc3[nH]ncc23)n1 [Compound 807]
1390	29				Cc1ccc2[nH]ncc2c1-c1nc(-c2cccnc2Nc2cccc(C(F)(F)F)c2)nc(C(N)=O)c1N [Compound 608]
	23	717			Cc1ccc2[nH]ncc2c1-c1nc(-c2ccns2)nc(C(N)=O)c1N [Compound 109]
	21	1220			Cc1ccc2[nH]ncc2c1-c1cc(-c2ccnc(N)c2)nc(C(N)=O)c1N [Compound 189]
	15		781		CCCc1ccccc1-c1nc(C(N)=O)c(N)c(-c2c(C)ccc3[nH]ncc23)n1 [Compound 796]
	12	192			Cc1ccc2[nH]ncc2c1-c1cc(-c2ccnc(OC3CCOC3)n2)nc(C(N)=O)c1N (stereo not drawn) [Compound 212]
	11		86		Cc1ccc2[nH]ncc2c1-c1nc(-c2cc(F)cnc2N[C@H]2CC[C@](O)(C(F)(F)F)CC2)nc(C(N)=O)c1N [Compound 835]
	10	164			Cc1ccc2[nH]ncc2c1-c1cc(-c2cccc(N[C@H]3C[C@H](O)C3)n2)nc(C(N)=O)c1N [Compound 322]
210	8				Cc1ccc2[nH]ncc2c1-c1nc(-c2ccccc2NC(=O)C2CC(F)(F)C2)nc(C(N)=O)c1N [Compound 415]
	8	120			Cc1ccc2[nH]ncc2c1-c1cc(-c2ccnc(OC3CCOCC3)n2)nc(C(N)=O)c1N [Compound 169]
	7	388			Cc1ccc2[nH]ncc2c1-c1cc(-c2ccnc(OC(C)C)n2)nc(C(N)=O)c1N [Compound 160, 3-amino-6-(2-isopropoxypyrimidin-4-yl)-4-(5-methyl-1H-indazol-4-yl)picolinamide]
	6		46		Cc1ccc2[nH]ncc2c1-c1nc(-c2cn(C)nc2NC2CCCC2)nc(C(N)=O)c1N [Compound 900]
26	6				Cc1ccc2[nH]ncc2c1-c1nc(-c2cc(F)ccc2Nc2ncccn2)nc(C(N)=O)c1N [Compound 472]
277	6				Cc1ccc2[nH]ncc2c1-c1nc(-c2ccc(F)cc2Nc2ccnc(C(C)C)c2)nc(C(N)=O)c1N [Compound 619]
42	6				Cc1ccc2[nH]ncc2c1-c1nc(-c2cc(Cl)ccc2NC(=O)C2(C)CC2)nc(C(N)=O)c1N [Compound 439]
28	5				Cc1ccc2[nH]ncc2c1-c1nc(-c2ccccc2NCC(F)(F)F)nc(C(N)=O)c1N [Compound 409]
	4	208			Cc1ccc2[nH]ncc2c1-c1cc(-c2ccnc(OCc3ccncc3)n2)nc(C(N)=O)c1N [Compound 230]
13	4				Cc1ccc2[nH]ncc2c1-c1nc(-c2ccccc2NC(=O)C2CC2)nc(C(N)=O)c1N [Compound 397]
7	4				Cc1cncnc1Nc1cc(F)ccc1-c1nc(C(N)=O)c(N)c(-c2c(C)ccc3[nH]ncc23)n1 [Compound 617]
137	4				Cc1ccc2[nH]ncc2c1-c1nc(-c2ccccc2NC(=O)C2(C)CC(F)(F)C2)nc(C(N)=O)c1N [Compound 462]
	4	387			Cc1ccc2[nH]ncc2c1-c1cc(-c2ccnc(OCCc3cc[nH]n3)n2)nc(C(N)=O)c1N [Compound 265]
	3	21			CC[C@H](COc1nccc(-c2cc(-c3c(C)ccc4[nH]ncc34)c(N)c(C(N)=O)n2)n1)OC (atropisomer, axis not shown) [Compound 333]
